Data reported in patent publication US20110224276A1, “OPTICAL ISOMER OF PHENYLPROPIONIC ACID AND ITS MEDICINAL USE” (priority 2008, published 2011).
pIC50: −log10 of the molar value. Values joined by “and” are separate entries in the source; they are usually repeats but may differ in a detail not shown here. Identical values can stand only once.

Assays:
Cox-1 = target: T1, Cox-1 (Ovis aries, UniProt P05979); assay: inhibiting activity to COX-1 (TMPD colorimetric, 590 nm); type: biochemical; conditions: tested at 300, 100, 30, 10 μmol/L (positive control 100, 30, 10, 3)
T1 construct: purchased Cayman, USA
T1 sequence (P05979 25-600): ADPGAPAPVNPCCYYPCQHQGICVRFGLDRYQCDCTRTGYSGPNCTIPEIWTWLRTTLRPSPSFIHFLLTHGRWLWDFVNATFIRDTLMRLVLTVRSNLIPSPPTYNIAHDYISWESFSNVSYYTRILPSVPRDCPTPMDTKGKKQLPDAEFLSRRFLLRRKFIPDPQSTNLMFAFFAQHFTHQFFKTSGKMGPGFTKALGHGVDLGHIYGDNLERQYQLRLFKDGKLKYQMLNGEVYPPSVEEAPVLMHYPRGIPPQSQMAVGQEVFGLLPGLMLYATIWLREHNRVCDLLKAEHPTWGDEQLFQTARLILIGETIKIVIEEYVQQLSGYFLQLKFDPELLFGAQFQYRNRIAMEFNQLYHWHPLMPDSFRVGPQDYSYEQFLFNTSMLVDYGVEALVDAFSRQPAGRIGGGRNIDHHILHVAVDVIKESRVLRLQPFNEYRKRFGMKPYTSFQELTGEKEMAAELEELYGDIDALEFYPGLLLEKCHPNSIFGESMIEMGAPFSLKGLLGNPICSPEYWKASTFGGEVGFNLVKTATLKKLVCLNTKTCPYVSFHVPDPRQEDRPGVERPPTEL
Method: (§1) 2.5.1 The Inhibiting Activity to COX-1/COX-2
(§2) (1) In 220 ul of reaction system, mixed buffer (1×), heme, COX-1/COX-2, and the compound to be tested, are sequentially added, and are incubated for 5 minutes at 25° C.;
(§3) (2) Adding chromogenic substrate (TMPD) and arachidonic acid;
(§4) (3) Carefully shaking the plate for several seconds, then incubating for 15 minutes at 25° C.;
(§5) (4) Detecting absorption value at 590 nm.
(§6) Fitting data of concentration (μmol/L) and corresponding inhibition rate (%) via Microsoft EXCEL software to get a trendline, so as to obtain the half-effective inhibiting concentration (IC50) of each tested enzyme.

Cox-2 = target: T2, Cox-2 (Homo sapiens, UniProt P35354); assay: inhibiting activity to COX-2 (TMPD colorimetric, 590 nm); type: biochemical; conditions: tested at 300, 100, 30, 10 μmol/L (positive control 100, 30, 10, 3)
T2 construct: purchased Cayman, USA
T2 sequence (P35354 18-604): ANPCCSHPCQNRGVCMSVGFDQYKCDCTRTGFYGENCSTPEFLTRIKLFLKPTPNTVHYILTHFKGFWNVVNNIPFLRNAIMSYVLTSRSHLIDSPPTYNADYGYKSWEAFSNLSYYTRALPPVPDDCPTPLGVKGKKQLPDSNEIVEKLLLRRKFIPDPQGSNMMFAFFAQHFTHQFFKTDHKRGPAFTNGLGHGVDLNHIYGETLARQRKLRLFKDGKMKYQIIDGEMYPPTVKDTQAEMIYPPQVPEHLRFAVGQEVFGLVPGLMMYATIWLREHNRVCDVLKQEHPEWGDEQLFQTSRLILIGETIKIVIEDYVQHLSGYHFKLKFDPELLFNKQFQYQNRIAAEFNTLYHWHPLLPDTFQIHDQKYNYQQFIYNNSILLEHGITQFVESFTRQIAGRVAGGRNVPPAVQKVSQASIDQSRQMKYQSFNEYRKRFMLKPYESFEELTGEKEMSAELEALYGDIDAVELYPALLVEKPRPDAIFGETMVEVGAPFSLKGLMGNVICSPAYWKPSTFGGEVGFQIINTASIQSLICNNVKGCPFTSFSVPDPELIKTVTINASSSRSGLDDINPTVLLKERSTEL
Method: as §1, §2, §3, §4, §5, §6

[1] = target: T3, 5-Lox (human recombinant) (Homo sapiens, UniProt P09917); assay: inhibiting activity to 5-lipoxygenase (500 nm); type: biochemical; conditions: tested at 300, 100, 30, 10 μmol/L (positive control 100, 30, 10, 3)
T3 construct: purchased Cayman, USA
T3 sequence (P09917 1-674): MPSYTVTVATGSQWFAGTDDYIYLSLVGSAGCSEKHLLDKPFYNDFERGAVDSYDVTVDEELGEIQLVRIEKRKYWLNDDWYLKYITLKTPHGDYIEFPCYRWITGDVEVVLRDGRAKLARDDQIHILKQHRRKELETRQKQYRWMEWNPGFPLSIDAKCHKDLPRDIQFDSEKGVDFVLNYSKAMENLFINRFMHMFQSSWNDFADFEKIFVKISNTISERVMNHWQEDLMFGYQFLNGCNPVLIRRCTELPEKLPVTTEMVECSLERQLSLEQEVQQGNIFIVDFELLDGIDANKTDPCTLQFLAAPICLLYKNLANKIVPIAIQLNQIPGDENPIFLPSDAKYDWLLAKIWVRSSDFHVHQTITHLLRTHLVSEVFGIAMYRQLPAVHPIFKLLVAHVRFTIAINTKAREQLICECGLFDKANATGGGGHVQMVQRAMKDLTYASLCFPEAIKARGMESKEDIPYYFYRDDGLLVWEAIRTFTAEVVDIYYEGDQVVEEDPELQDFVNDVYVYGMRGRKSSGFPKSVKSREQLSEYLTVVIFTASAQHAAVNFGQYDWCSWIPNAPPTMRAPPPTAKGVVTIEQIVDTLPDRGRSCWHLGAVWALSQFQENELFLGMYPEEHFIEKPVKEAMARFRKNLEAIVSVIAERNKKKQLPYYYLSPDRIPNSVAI
Excerpt: as §6

ICR mice [2] = assay: in vivo
Excerpt: (§7) Each tested group includes 5 dose-groups during the tests as follows:
Intragastric administration (ig)
(3) Observed periods: 14 days

ICR mice [3] = assay: in vivo; remark: listed apart in the source
Excerpt: as §7
Intraperitoneal injection (ip)
(3) Observed periods: 14 days.

SD rats [4] = assay: toxicity test in SD rats, four-week consecutive intragastric administration; conditions: rats
Method: 2. […] The tested samples are formulated into suspensions by milling with 0.5% CMC—Na; intragastric administration every day (10 ml/kg) for consecutive 4 weeks; on each day, after administration, the general conditions of the animals are observed, and weight and amount of ingestion are determined once every week. In 24 hours after the last administration, the rats are fasted overnight, blood samples are withdrawn via femoral arteries, and the rats are dissected, and the indexes of blood cytology and biochemics, gloss anatomy and histopathological examination are preformed.

SD rats [5] = assay: long-term toxicity test in SD rats, thirteen-week consecutive intragastric administration and four-week convalescence; conditions: rats
Method: 2. […] The tested samples are formulated into suspensions by milling with 0.5% CMC—Na; intragastric administration (10 ml/kg) every day for consecutive 13 weeks; on each day, after administration, the general conditions of the animals are observed, and weight and amount of ingestion are determined once every week. In 24 hours after the last administration, half of rats in each tested group are fasted overnight, blood samples are withdrawn via femoral arteries, and the rats are dissected, and the indexes of blood cytology and biochemics, gloss anatomy and histopathological examination are preformed. The administration to remaining half rats is stopped, and the convalescence is observed; general conditions are observed and weight and amount of ingestion are determined once every week. After 4 weeks, the observation is complete, and the half of rats in each tested group are fasted overnight, blood samples are withdrawn via femoral arteries, and the rats are dissected, and the indexes of blood cytology and biochemics, gloss anatomy and histopathological examination are preformed.

Work on “R-10,11-dihydro-alpha-methyl-10-oxo-dibenzo[b,f]tiazem-2-acetic acid:S-10,11-dihydro-alpha-methyl-10-oxo-dibenzo[b,f]tiazem-2-acetic acid (6:1) [S:R = 1:6]” yielded a pIC50 (Cox-1) of 4.15, a pIC50 (Cox-2) of 5.28 and a pIC50 [1] of 4.73. The “Com. Vs. S (multiple)” value (ICR mice [2]; LD50 ig compared with S) was 4.2 multiple, the “LD50” value (ICR mice [2]; mice, ig, single dose, 14 days observation, Bliss method) was 1138.5 ± 80.3 mg/kg and 1138.5 mg/kg and the “Com. Vs. S (multiple)” value (ICR mice [3]; LD50 ip compared with S) was 2.5 multiple. For the same substance, the “LD50” value (ICR mice [3]; mice, ip, single dose, 14 days observation, Bliss method) was 497.6 ± 28.6 mg/kg, the gastrointestinal tract toxicity (SD rats [4]; four-week ig, S 80, 40, RS 80, R 480, 240, 120, R:S=6:1 320, 160, 80 mg/kg) was “do not produce significant gastrointestinal tract toxicity” and the nontoxic dosage (SD rats [4]; four-week consecutive intragastric administration) was 160 mg/kg. The gastrointestinal tract toxicity (SD rats [5]; 13-week ig, S 50, 25, RS 50, R 400, 200, 100, R:S=6:1 200, 100, 50 mg/kg) was “not produce significant gastrointestinal tract toxicity” and the nontoxic dosage (SD rats [5]; 13-week consecutive intragastric administration) was 100 mg/kg.
